In US20250282735A1, “BICYCLE COMPOUNDS AS TEAD INHIBITOR” (DONG-A ST CO., LTD., priority 2022, published 2025):
pIC50: −log10 of the molar value.

Columns and labels:
MSTO-211H cells = assay: Proliferation assay (EdU incorporation), MSTO-211H; assay type: cell-based; details: Homo sapiens, 72 h, YAP-driven MSTO-211H (LATS1 mutation), 3 days with inhibitor, 1% serum
Method: The anti-proliferative activity of TEAD inhibitors was evaluated in cells with different properties for YAP; “YAP-driven” cells (MSTO-211H, NCI-H226) in which YAP located in the nucleus and “YAP-independent” cells (OCM1, NCI-H28) where YAP located in the cytoplasm. […] TEAD inhibitors were evaluated with cell lines with these YAP profiling and mutational status.
The next day, replace it with cell starvation medium containing 1% serum. After one day of growth in the starvation medium, the cells were incubated for 3 days with TEAD inhibitors in a concentration range of 0.01-10 μM. After 3 days, EdU (Invitrogen) at a concentration of 10 µM was added to the starvation medium and incubated for an additional 24 hours. After removing the starvation medium remaining in each well, wash the wells with PBS. Cells were fixed with 4% paraformaldehyde (Electron microscopy sciences) at room temperature for 20 minutes. After removing the fix solution remaining in each well, wash the wells with PBS and the cells were permeabilized for 40 minutes by adding 0.5% triton X-100 (Sigma Aldrich). After removing the permeabilization solution remaining in each well, the EdU labeling was performed according to the instructions of the manufacturer's instructions (Click-iT™ Cell Reaction Buffer Kit, Invitrogen). After the Click reaction for EdU labeling, nuclei were stained with […] (Thermo Scientific) for total cell count analysis. After plate preparation for detection, Image acquisition was performed using the ImageXpress Micro XLS. The acquired images were analyzed using MetaXpress software (molecular devices). Through this experimental method, it was possible to confirm the inhibitory activity of TEAD inhibitors by detection EdU incorporated into proliferating cells.
IC50 for cell proliferation inhibition activity are shown in the Table 2 below and designated within the following ranges. [+++: ≤0.1 μM, ++: >0.1 μM to ≤1 μM, +: >1 μM to ≤10μ, −: >10 μM]

[1] = tested on: TEAD reporter-containing human breast cancer cell line MCF7; assay: TEAD reporter (luciferase) assay; assay type: cell-based; details: TEAD reporter MCF7 cells, 24 hours treatment, 1% serum media
Method: The TEAD reporter-containing human breast cancer cell line MCF7 (60618, BPS bioscience) was cultured according to the manufacturer's instructions. Cells were plated in 96-well white plates at a density of 30,000 per well and incubated overnight. The following day cells were treated with small molecules in 1% serum media (0.1% v/v DMSO). After 24 hours of the treatment, cell viability was evaluated by using CCK-8 reagent (CK04, Dojindo) and measuring absorbance at 450 nm. Then, the assay for luciferase activity was performed using Dual-Glo® Luciferase Assay System (Promega, E2940) following the manufacturer's instructions. Luminescence intensity was measured and the potency of the compounds was determined by IC50 value generated from non-linear regression analysis of the dose-response curves.
IC50 for luciferase activity are shown in the Table 1 below and designated within the following ranges. [+++: ≤0.1 μM, ++: >0.1 μM to ≤1 μM, +: >1 μM to ≤10 μM, −: >10 μM]

| pIC50 [1] | Compound | pIC50 (MSTO-211H cells) |
| --- | --- | --- |
| 6.00 to 7.00 | C=CC(=O)Nc1ccc2c(c1)c(/C=C/C1CCC(F)(F)CC1)nn2C(C)C [Compound 5, (E)-N-(3-(2-(4,4-Difluorocyclohexyl)vinyl)-1-isopropyl-1H-indazol-5-yl)acrylamide] | 6.00 to 7.00 |
| 5.00 to 6.00 | C=CC(=O)Nc1cnc2c(c1)c(/C=C/c1ccc(Cl)cc1)cn2C1CCCC1 [Compound 10, (E)-N-(3-(4-Chlorostyryl)-1-cyclopentyl-1H-pyrrolo[2,3-b]pyridin-5-yl)acrylamide] | 6.00 to 7.00 |
| – | C=CC(=O)Nc1ccc2c(/C=C/C3CCC(F)(F)CC3)cn(C)c2c1 [Compound 13, (E)-N-(3-(2-(4,4-Difluorocyclohexyl)vinyl)-1-methyl-1H-indol-6-yl)acrylamide] | 5.00 to 6.00 |
| – | C=CC(=O)Nc1ccc2c(c1)c(/C=C/c1ccc(Cl)cc1)c(C)n2C [Compound 14, (E)-N-(3-(4-Chlorostyryl)-1,2-dimethyl-1H-indol-5-yl)acrylamide] | 6.00 to 7.00 |
| – | C=CC(=O)Nc1cnc2c(c1)c(/C=C/c1cccc(F)c1)cn2C [Compound 40, (E)-N-(3-(3-Fluorostyryl)-1-methyl-1H-pyrrolo[2,3-b]pyridin-5-yl)acrylamide] | 6.00 to 7.00 |
| – | C=CC(=O)Nc1cnc2c(c1)c(/C=C/c1cccc(Cl)c1)cn2C [Compound 41, (E)-N-(3-(3-Chlorostyryl)-1-methyl-1H-pyrrolo[2,3-b]pyridin-5-yl)acrylamide] | ≥ 7.00 |
| – | C=CC(=O)Nc1cnc2c(c1)c(/C=C/c1ccc(OC)c(F)c1)cn2C [Compound 42, (E)-N-(3-(3-Fluoro-4-methoxystyryl)-1-methyl-1H-pyrrolo[2,3-b]pyridin-5-yl)acrylamide] | 6.00 to 7.00 |
| – | C=CC(=O)Nc1cnc2c(c1)c(/C=C/c1ccc(C(C)C)cc1)cn2C [Compound 43, (E)-N-(3-(4-Isopropylstyryl)-1-methyl-1H-pyrrolo[2,3-b]pyridin-5-yl)acrylamide] | 6.00 to 7.00 |
| – | C=CC(=O)Nc1cnc2c(c1)c(/C=C/c1ccc(F)c(F)c1)cn2C [Compound 44, (E)-N-(3-(3,4-Difluorostyryl)-1-methyl-1H-pyrrolo[2,3-b]pyridin-5-yl)acrylamide] | ≥ 7.00 |
| – | C=CC(=O)Nc1cnc2c(c1)c(/C=C/c1ccc(C(F)(F)F)cc1)cn2C [Compound 46, (E)-N-(1-Methyl-3-(4-(trifluoromethyl)styryl)-1H-pyrrolo[2,3-b]pyridin-5-yl)acrylamide] | 6.00 to 7.00 |
| – | C=CC(=O)Nc1cnc2c(c1)c(/C=C/C1CCCCC1)cn2C [Compound 49, (E)-N-(3-(2-Cyclohexylvinyl)-1-methyl-1H-pyrrolo[2,3-b]pyridin-5-yl)acrylamide] | ≥ 7.00 |
| – | C=CC(=O)Nc1cnc2c(c1)c(-c1cccc(OCc3cccc(Cl)c3)c1)cn2C [Compound 52, N-(3-(3-((3-Chlorobenzyl)oxy)phenyl)-1-methyl-1H-pyrrolo[2,3-b]pyridin-5-yl)acrylamide] | 6.00 to 7.00 |
| – | C=CC(=O)N(C)c1cnc2c(c1)c(/C=C/C1CCC(F)(F)CC1)cn2C [Example 66, (E)-N-(3-(2-(4,4-Difluorocyclohexyl)vinyl)-1-methyl-1H-pyrrolo[2,3-b]pyridin-5-yl)-N-methylacrylamide] | 6.00 to 7.00 |
| – | C=CC(=O)N(Cc1ccccc1)c1cnc2c(c1)c(/C=C/c1ccc(Cl)cc1)cn2C [Example 67, (E)-N-Benzyl-N-(3-(4-chlorostyryl)-1-methyl-1H-pyrrolo[2,3-b]pyridin-5-yl)acrylamide] | 5.00 to 6.00 |
| – | C=CC(=O)N(Cc1ccncc1)c1cnc2c(c1)c(/C=C/c1ccc(Cl)cc1)cn2C [Example 68, (E)-N-(3-(4-Chlorostyryl)-1-methyl-1H-pyrrolo[2,3-b]pyridin-5-yl)-N-(pyridin-4-ylmethyl)acrylamide] | 5.00 to 6.00 |
| – | C=CC(=O)Nc1cnc2ccn(CC3CCCCC3)c2c1 [Example 77, N-(1-(Cyclohexylmethyl)-1H-pyrrolo[3,2-b]pyridin-6-yl)acrylamide] | 6.00 to 7.00 |
| – | C=CC(=O)Nc1cnc2c(c1)c(-c1cccc(N3CCCCC3)c1)cn2C [Example 88, N-(1-Methyl-3-(3-(piperidin-1-yl)phenyl)-1H-pyrrolo[2,3-b]pyridin-5-yl)acrylamide] | 6.00 to 7.00 |

| pIC50 [1] | Compound | pIC50 (MSTO-211H cells) |
| --- | --- | --- |
| – | C=CC(=O)Nc1cnc2c(c1)c(-c1ccc(C(F)(F)F)cc1)cn2CC [Example 95, N-(1-Ethyl-3-(4-(trifluoromethyl)phenyl)-1H-pyrrolo[2,3-b]pyridin-5-yl)acrylamide] | 6.00 to 7.00 |
| – | C=CC(=O)Nc1cnc2c(c1)c(-c1ccc(C(F)(F)F)cc1)cn2C(C)C [Example 96, N-(1-isopropyl-3-(4-(trifluoromethyl)phenyl)-1H-pyrrolo[2,3-b]pyridin-5-yl)acrylamide] | 6.00 to 7.00 |
| – | C=CC(=O)Nc1cnc2c(c1)c(-c1ccc(CCC)cc1)cn2C [Example 100, N-(1-Methyl-3-(4-propylphenyl)-1H-pyrrolo[2,3-b]pyridin-5-yl)acrylamide] | ≥ 7.00 |
| – | C=CC(=O)Nc1cnc2c(c1)c(-c1ccc(F)cc1)cn2C [Example 103, N-(3-(4-Fluorophenyl)-1-methyl-1H-pyrrolo[2,3-b]pyridin-5-yl)acrylamide] | 6.00 to 7.00 |
| – | C=CC(=O)Nc1cnc2c(c1)c(-c1ccc(C)cc1)cn2C [Example 104, N-(1-Methyl-3-(p-tolyl)-1H-pyrrolo[2,3-b]pyridin-5-yl)acrylamide] | 6.00 to 7.00 |
| 5.00 to 6.00 | CN(C)C/C=C/C(=O)Nc1cnc2c(c1)c(-c1ccc(C(F)(F)F)cc1)cn2C [Example 120, (E)-4-(Dimethylamino)-N-(1-methyl-3-(4-(trifluoromethyl)phenyl)-1H-pyrrolo[2,3-b]pyridin-5-yl) but-2-enamide 2,2,2-trifluoroacetate] | – |
| ≥ 7.00 | C=CC(=O)Nc1ccc2c(c1)c(C1CCCCC1)cn2C [Example 123, N-(3-Cyclohexyl-1-methyl-1H-indol-5-yl)acrylamide] | – |
| ≥ 7.00 | C=CC(=O)Nc1ccc2c(c1)c(C1=CCC(C)(C)CC1)cn2C [Example 124, N-(3-(4,4-dimethylcyclohex-1-en-1-yl)-1-methyl-1H-indol-5-yl)acrylamide] | – |
| 5.00 to 6.00 | C=CC(=O)Nc1ccc2c(c1)c(C1=CCC(OC)CC1)cn2C (stereo not drawn) [Example 125, N-(3-(4-Methoxycyclohex-1-en-1-yl)-1-methyl-1H-indol-5-yl)acrylamide] | – |
| < 5.00 | C=CC(=O)Nc1ccc2c(c1)c(C1CCC(OC)CC1)cn2C (stereo not drawn) [Example 126, N-(3-(4-Methoxycyclohexyl)-1-methyl-1H-indol-5-yl)acrylamide] | – |
| – | C=CC(=O)Nc1cnc2c(c1)c(-c1ccc(C(F)(F)F)cc1)cn2C(F)F [Example 129, N-(1-(Difluoromethyl)-3-(4-(trifluoromethyl)phenyl)-1H-pyrrolo[2,3-b]pyridin-5-yl)acrylamide] | 6.00 to 7.00 |
| 5.00 to 6.00 | C=CC(=O)Nc1cnc2c(c1)c(-c1ccc(Cl)c(F)c1)cn2C(F)F [Example 133, N-(3-(4-Chloro-3-fluorophenyl)-1-(difluoromethyl)-1H-pyrrolo[2,3-b]pyridin-5-yl)acrylamide] | – |
| 6.00 to 7.00 | C=CC(=O)Nc1cnc2c(c1)c(-c1cccc(C(F)(F)F)c1)cn2C(F)F [Example 134, N-(1-(Difluoromethyl)-3-(3-(trifluoromethyl)phenyl)-1H-pyrrolo[2,3-b]pyridin-5-yl)acrylamide] | – |
| 5.00 to 6.00 | C=CC(=O)Nc1cnc2c(c1)c(-c1ccc(F)c(Cl)c1)cn2C(F)F [Example 135, N-(3-(3-Chloro-4-fluorophenyl)-1-(difluoromethyl)-1H-pyrrolo[2,3-b]pyridin-5-yl)acrylamide] | – |
| ≥ 7.00 | C=CC(=O)Nc1cnc2c(c1)c(Cc1cccc(Cl)c1)cn2C [Example 136, N-(3-(3-Chlorobenzyl)-1-methyl-1H-pyrrolo[2,3-b]pyridin-5-yl)acrylamide] | – |
| ≥ 7.00 | C=CC(=O)Nc1cnc2c(c1)c(C=C1CCCCC1)cn2C [Example 137, N-(3-(Cyclohexylidenemethyl)-1-methyl-1H-pyrrolo[2,3-b]pyridin-5-yl)acrylamide] | – |
| ≥ 7.00 | C=CC(=O)Nc1cnc2c(c1)c(CC1CCCCC1)cn2C [Example 138, N-(3-(Cyclohexylmethyl)-1-methyl-1H-pyrrolo[2,3-b]pyridin-5-yl)acrylamide] | – |
